Laboratory results: patent US11008361B2, “Liver-specific delivery-based anti-hepatitis C prodrug nucleoside cyclo-phosphate compound and uses thereof” (priority 2017, dated 2021)

How the values were obtained:
[1] = Compound tissue distribution experiment in rats (metabolites 2FM-UR, 2FM-UMP, 2FM-UTP by LC-MS/MS); format: in vivo, Sprague Dawley rats; settings: rat; for 2FM-UTP released in liver versus corresponding time points of sofosbuvir: 30 mg/Kg oral, p<0.01, FIG. 2; for 2FM-UMP released in the heart versus sofosbuvir: p<0.01, FIGS. 3A-3B; for Active molecule 2FM-UTP in the blood and heart: lower limit of quantitation 5 ng/mL or 5 ng/g
Description: Sprague Dawley rats, male, weighing 180-300 g, were provided by Shanghai Xipuer-Beikai Experimental Animal Co., Ltd. Male animals were allowed to adapt to the environment for more than 3 days, and fasted for 12 hours before the experiment, but were free to drink water. PA2020, PA2024, PA2029 and sofosbuvir were respectively dissolved in a mixed solvent of Cremophor EL, ethanol and normal saline at a volume ratio of 10:10:80 to prepare corresponding solutions. Before the administration, the animals' weight was checked to determine whether the rats met the experimental requirements. Twelve rats were selected for grouping, 2 rats in each group, and 30 mg/kg of a drug solution was administered intragastrically to the rats. Samples were respectively collected at 0.5 h, 1 h, 3 h, 6 h, 12 h and 24 h after the administration. After the rats were euthanized with carbon dioxide, the blood was collected from the heart and stored in heparin anticoagulation tubes. The blood was centrifuged at 6,000 rpm and 4° C. for 5 min, and the supernatant plasma was taken and stored in dry ice. The kidney, liver and heart of the rats were collected and rinsed with normal saline pre-cooled at 4° C. and stored in dry ice after the water was drained. After the experiment, the samples were stored in a −80° C. refrigerator.
Due to the difference in polarity, 2FM-UR, 2FM-UMP and 2FM-UTP were separated and detected using different methods, so that the used LC-triple quadrupole mass spectrometry detectors, the pretreatment conditions, chromatographic and mass spectrometric conditions varied among these compounds.
In the ice bath, 50 μL of plasma was first mixed with 50 μL of internal standard solution (10% trichloroacetic acid solution of tenofovir at 500 ng/mL). After centrifugation at 13,000 rpm and 4° C. for 10 min, 20 μL of the supernatant was mixed with 180 μL of water, and 5 μL of the resulting solution was injected and analyzed by LC-MS/MS.
The kidney, liver and heart tissue were mixed with a buffer in a volume ratio of 1:5 and fully disrupted in the ice bath. 20 μL of the tissue homogenate was mixed with 20 μL of the internal standard solution (500 ng/mL of tenofovir in 10% trichloroacetic acid solution). After centrifugation at 13,000 rpm for 10 min at 4° C., 20 μL of the supernatant was mixed with 180 μL of water, and 5 μL of the resulting solution was injected and analyzed by LC-MS/MS.
LC-MS/MS-AJ (Triple Quad 5500, AB SCIEX) was used for sample analysis. Column: Acquity UPLC HSS T3 (2.1×50 mm, […]); column temperature: 40° C.; flow rate: 0.5 mL/min. Mobile phase A: 0.1% aqueous formic acid, mobile phase B: acetonitrile solution. Mass spectrometry conditions corresponding to the internal standard: electrospray ionization (ESI) positive ion mode, multiple reaction monitoring (MRM) monitoring ion pair m/z: 288/176 (tenofovir), 261/113 (2FM-UR); the temperature was 500° C.; the scanning time was 0.03 s; the collision energy was 15V.
In the ice bath, 30 μL of plasma was first mixed with 30 μL of internal standard solution (5% trichloroacetic acid solution of 100 ng/mL tolbutamide). After centrifugation at 13,000 rpm for 10 min at 4° C., 40 μL of the supernatant was mixed with 80 μL of water, and 5 μL of the injection was analyzed.
Kidney, liver, heart tissue: in the ice bath, tissue and 5 volumes of homogenization buffer of organ tissues (1.75 mL of methanol, 5 μL of 50% KOH solution and 0.75 mL of 268 mM EDTA solution, pH=8) were fully disrupted and mixed. 60 μL of tissue homogenate was mixed with 60 μl of internal standard solution (5% trichloroacetic acid solution of 100 ng/mL tolbutamide). After centrifugation at 13,000 rpm for 10 minutes at 4° C., 40 μL of the supernatant was mixed with 80 μL of water, and 5 μL of the injection was analyzed.
LC-MS/MS-AJ (Triple Quad 5500, AB SCIEX) was used for sample analysis. Column: ACE 3 AQ (2.1×50 mm); column temperature: 55° C.; flow rate: 0.45 mL/min. […]

[2] = system: human liver microsome (HLM); assay: Human liver microsomal metabolism in vitro (release of 2FM-UMP); format: in vitro ADME; settings: formation of 2FM-UMP, versus other candidate compounds of Table 3
Description: The human liver microsome (HLM) used in this test was purchased from In Vitro Technologies (IVT) with a batch number of SSP X008070, which was a mixed liver microsome extracted from the liver tissues of 150 donors. The product description recorded that the metabolic activity of CYP3A4 in this batch of the human liver microsomes was 1.734 nmol/mg/min (the rate at which testosterone is metabolized to produce 6-β testosterone). The test compound was synthesized by Zhejiang Plato Pharmaceutical Technology Co., Ltd., and dissolved in methanol to prepare a storage solution having a concentration of 25 mM. The enzymatic reaction was carried out in a 100 mM KH2PO4 buffer solution (pH 7.4) at a test compound concentration of 25 μM and a human liver microsome concentration of 2 mg/ml. The reaction was initiated by the addition of NADPH (final concentration 2 mM). After reacting for 5 min in a constant temperature shaking water bath, the reaction was terminated by the rapid addition of methanol at a volume of 1.5 times that of the reaction mixture. The reaction solution was centrifuged at a maximum speed of 13,600 rpm using an Eppendorf bench top centrifuge for 20 min, and the supernatant was taken. And then the supernatant was dried by a nitrogen blower and redissolved in mobile phase A (aqueous solution containing 5 mM ammonium acetate and 0.05% formic acid v/v). The resulting sample was analyzed by LC-MS/MS (Waters, Acquity UPLC HSS T3 column).

rat hepatocytes = settings: lamivudine triphosphate used as a reference; cited from earlier work
[3] = 30 mg/kg intragastric, within 24 h
[4] = 30 mg/kg intragastric, within 24 h, plasma
[5] = same dose (30 mg/kg), plasma, relative to sofosbuvir

| 2FM-UTP released in liver versus corresponding time points of sofosbuvir [1] | Exposure amount of 2FM-UMP in liver (AUC0-t) [1, 3] [ng·h/g] | Exposure amount of 2FM-UTP in liver (AUC0-t) [1, 3] [ng·h/g] | Exposure amount of 2FM-UMP in plasma (AUC0-t) [1, 4] [ng·h/g] | 2FM-UMP released in the heart versus sofosbuvir ([1]; 30 mg/kg, heart) | Active molecule 2FM-UTP in the blood and heart ([1]; 30 mg/kg) | Transformation rate relative to other candidate compounds [2] | 2FM-UR released in the heart versus equivalent dose of sofosbuvir ([1]; 30 mg/kg, heart, p<0.01, FIGS. 4A-4B) | 2FM-UMP concentration in plasma as fraction of sofosbuvir [1, 5] | 2FM-UR concentration in plasma relative to sofosbuvir [1, 5] | SMILES | Corresponding active triphosphate compound produced in rat hepatocytes (rat hepatocytes) [nmol/g] | Exposure amount of 2FM-UMP in heart (AUC0-t) ([1]; 30 mg/kg intragastric, within 24 h, heart, N.D. = below 5 ng/g or 5 ng/mL) [ng·h/g] |
| --- | --- | --- | --- | --- | --- | --- | --- | --- | --- | --- | --- | --- |
| significantly higher | 102822 | 26682 | 439 | less | could not be detected | almost more than twice | – | – | – | C[C@@]1(F)[C@H](O)[C@@H](COP2(=O)OCC[C@H](c3cc(F)cc(Cl)c3)O2)O[C@H]1n1ccc(=O)[nH]c1=O (stereo partly drawn) [PA2020] | – | – |
| significantly higher | 65242 | 9591 | 105 | less | could not be detected | almost more than twice | – | – | – | C[C@@]1(F)[C@H](O)[C@@H](COP2(=O)OCC[C@H](c3cc(Cl)cc(Cl)c3)O2)O[C@H]1n1ccc(=O)[nH]c1=O (stereo partly drawn) [PA2024] | – | – |
| – | – | – | – | – | – | – | – | – | – | CCC(=O)O[C@@H]1[C@@H](COP2(=O)OCC[C@H](c3cccc(Cl)c3)O2)O[C@@H](n2ccc(=O)[nH]c2=O)[C@]1(C)F (stereo partly drawn) | 87.8 | – |
| significantly higher | 110339 | 11820 | 1451 | less | could not be detected | almost more than twice | less | ¼ | approximately half | C[C@@]1(F)[C@H](O)[C@@H](COP2(=O)OCC[C@H](c3cc(Cl)ccc3F)O2)O[C@H]1n1ccc(=O)[nH]c1=O (stereo partly drawn) [PA2029] | – | – |

| SMILES | 2FM-UTP released in liver versus corresponding time points of sofosbuvir [1] | Exposure amount of 2FM-UMP in liver (AUC0-t) [1, 3] [ng·h/g] | Exposure amount of 2FM-UTP in liver (AUC0-t) [1, 3] [ng·h/g] | Exposure amount of 2FM-UMP in plasma (AUC0-t) [1, 4] [ng·h/g] | 2FM-UMP released in the heart versus sofosbuvir ([1]; 30 mg/kg, heart) | Active molecule 2FM-UTP in the blood and heart ([1]; 30 mg/kg) | Transformation rate relative to other candidate compounds [2] | 2FM-UR released in the heart versus equivalent dose of sofosbuvir ([1]; 30 mg/kg, heart, p<0.01, FIGS. 4A-4B) | 2FM-UMP concentration in plasma as fraction of sofosbuvir [1, 5] | 2FM-UR concentration in plasma relative to sofosbuvir [1, 5] | Corresponding active triphosphate compound produced in rat hepatocytes (rat hepatocytes) [nmol/g] | Exposure amount of 2FM-UMP in heart (AUC0-t) ([1]; 30 mg/kg intragastric, within 24 h, heart, N.D. = below 5 ng/g or 5 ng/mL) [ng·h/g] |
| --- | --- | --- | --- | --- | --- | --- | --- | --- | --- | --- | --- | --- |
| CC(C)OC(=O)[C@H](C)N[P@](=O)(OC[C@H]1O[C@@H](n2ccc(=O)[nH]c2=O)[C@](C)(F)[C@@H]1O)Oc1ccccc1 [SFB, sofosbuvir, reference compound] | – | 27128 | 2691 | 5680 | – | could not be detected | – | – | – | – | – | 417 |
